# Test results: US8685962B2 (priority 2007, dated 2014)
# Read-outs that look alike come from different tables or passages of the source.
# Experiments:
# [1] = target: T1, TSPO receptors in SCC-25 cell line (Homo sapiens, UniProt P30536); experiment: Displacement of [3H]PK11195 from TSPO receptors in SCC-25 cells; assay type: binding; settings: for potency in displacing [3H]PK11195, fold lower than PK11195: SCC-25 membrane, relative to PK11195
# T1 construct: endogenous in cells; host or cells: SCC-25
# T1 sequence (P30536 whole entry): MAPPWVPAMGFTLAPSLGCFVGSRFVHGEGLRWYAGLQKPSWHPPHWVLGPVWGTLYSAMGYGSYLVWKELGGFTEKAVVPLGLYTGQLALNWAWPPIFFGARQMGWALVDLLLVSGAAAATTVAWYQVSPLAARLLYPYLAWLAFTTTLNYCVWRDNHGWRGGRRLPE
# Method: (§1) Cells were scraped from the culture dishes, washed with phosphate-buffered saline (PBS), and centrifuged at 1200 g for 10 minutes. Then the cell pellets were re-suspended in 1 mL of 50 mM phosphate buffer, pH 7.4, and centrifuged at 1200 g for 10 minutes. […] After incubation for 80 minutes at room temperature, samples were filtered under vacuum over Whatman GF/B filters and washed three times with phosphate buffer. Filters were placed in vials containing 4 mL of Opti-Fluor (Packard, Groningen, The Netherlands) and counted for radioactivity in a scintillation counter after 12 hours. The maximal number of binding sites (Bmax) and equilibrium dissociation constants were calculated from the saturation curve of [^3H]
# [2] = test system: H1299 lung cancer cells; experiment: Survival of H1299 cells exposed to cigarette smoke with/without saliva; assay type: cell-based, human; settings: for effect on survival of H1299 cells exposed to CS (in words): CS + 30% saliva
# Method: Four control groups, not exposed to tobacco smoke (referred to herein as TS or alternatively, as CS, standing for “cigarette smoke”) were compared to four study groups (similar groups which were also exposed to CS), as detailed hereinafter. The four control groups included the following: a group where the cells were incubated in medium alone and exposed to air (M), a group where the cells were incubated in medium supplemented with whole saliva and exposed to air (M+saliva), a group where the cells where incubated in medium and exposed to CS (M+CS) and a group where the cells were incubated in medium supplemented with saliva and exposed to CS (M+saliva+CS).
# During smoke exposure, the cells were put into a smoking sealed chamber (33.5 cm^3) with CS pressure of 0.3 Bar. Control cells were subjected to the same procedures, but exposed only to fresh air. Cells were exposed to CS for one “puff” every 20 minutes for a 2 hours (120 minutes) period (unless indicated otherwise). Cells exposed to air served as control. Cells were used when it becomes confluent and the medium (with/without saliva) volume was compatibly to the dish in use.
# In order to examine the possible effect of TSPO receptor ligands on the survival rate of cells exposed to both CS and saliva, the benzodiazepine TSPO ligand, diazepam, was added to cells prior to exposing the cells to CS+30% saliva.
# [3] = target: T2, human salivary TSPO (Homo sapiens, UniProt P30536); experiment: Competition of TSPO ligands with [3H]PK11195 binding in human saliva; settings: for binding affinity lower than that of PK11195: relative to PK11195
# T2 construct: from tissue; host or cells: cells pelleted from human saliva samples (volunteers; smokers and non-smokers)
# T2 sequence (P30536 whole entry): as above
# Method: (§2) After 80 minutes of incubation at 4° C., the samples were filtered through Whatman CF/C filters using a vacuum system, washed three times with 4 ml of 5 mM ice-cold phosphate buffer and placed in vials containing 4 ml of Opti-Fluor. Radioactivity was counted after 12 hours with a liquid scintillation analyzer. Specific binding was obtained by subtracting non specific binding from total binding.
# [4] = target: T3, TSPO receptors in SCC-15 cell line (Homo sapiens, UniProt P30536); experiment: Displacement of [3H]PK11195 from TSPO receptors in SCC-15 cells; assay type: binding
# T3 construct: endogenous in cells; host or cells: SCC-15
# T3 sequence (P30536 whole entry): as above
# Method: as §1
# [5] = target: T4, TSPO receptors in human tongue cancer cell line SCC-25 (Homo sapiens, UniProt P30536); experiment: [3H]PK11195 saturation binding (Scatchard) in SCC-25 cells
# T4 construct: Cells were scraped from the culture dishes, washed with phosphate-buffered saline (PBS), and centrifuged; endogenous in cells; host or cells: SCC-25
# T4 sequence (P30536 whole entry): as above
# Method: as §1
# [6] = target: T5, TSPO receptors in H1299 lung cancer cells (Homo sapiens, UniProt P30536); experiment: [3H]PK11195 saturation binding (Scatchard) in H1299 cells
# T5 construct: Cells were scraped from the culture dishes, washed with phosphate-buffered saline (PBS), and centrifuged; endogenous in cells; host or cells: H1299
# T5 sequence (P30536 whole entry): as above
# Method: as §1
# [7] = target: T6, TSPO receptors in human tongue cancer cell line SCC-15 (Homo sapiens, UniProt P30536); experiment: [3H]PK11195 saturation binding (Scatchard) in SCC-15 cells
# T6 construct: endogenous in cells; host or cells: SCC-15
# T6 sequence (P30536 whole entry): as above
# Method: as §1
# [8] = target: T7, TSPO receptor in saliva (Homo sapiens, UniProt P30536); experiment: [3H]PK11195 binding in saliva from heavy smokers and non-smokers; settings: for mean TSPO binding: 6 nM ligand
# T7 construct: from tissue; host or cells: cells pelleted from human saliva samples (volunteers; smokers and non-smokers)
# T7 sequence (P30536 whole entry): as above
# Method: as §2
# The effect of long term CS-exposure on the salivary TSPO, of heavy smokers, was investigated. Saliva samples were collected from heavy smokers (smokers group) and from a control group of non-smoking volunteers (control group), and the total protein expression level as well as TSPO binding capacity was evaluated as follows.
# The mean TSPO binding was calculated and found to be 53% lower in the smokers group, as compared to the control group (694±264; n=9 and 1,480±1,157; n=16, respectively; see, FIG. 7b). This statistically significant reduction (p<0.05) further supports the results obtained for the in-vitro exposure of saliva cells to CS (detailed above), and point to a CS-related reduced TSPO receptor binding capacity.
# [9] = target: T7, TSPO receptor in saliva; experiment: [3H]PK11195 saturation binding with Scatchard analysis in human saliva; settings: n=10
# Method: as §2
# [10] = 10^-8 M, medium + 30% saliva, CS 120 minutes
# [11] = 50% inhibition of [3H]PK11195 binding, SCC-25, read-out: IC50
# [12] = 50% inhibition of [3H]PK11195 binding, SCC-15, read-out: IC50
# [13] = inhibition of [3H]PK11195 binding, human saliva, four independent experiments, read-out: Ki
smiles,measurement,setting,value
O=C1CN=C(c2ccccc2Cl)c2cc([N+](=O)[O-])ccc2N1 [Clonazepam],affinity for TSPO (in words),[1]; SCC-25,negligible affinity
same,effect on survival of H1299 cells exposed to CS (in words),[2]; 10^-7 M,No significant increase in survival levels
same,effect on survival of H1299 cells exposed to CS (in words),"[2]; 10^-7 M, listed as clonazepam",not significantly altered
same,effect on survival of H1299 cells exposed to CS (in words),[2]; 10^-8 M,did not increase the survival level
same,decrease of cells survival,[2]; [10],10.65%
same,affinity to TSPO (in words),[3]; human saliva,negligible affinity
CN1C(=O)CN=C(c2ccccc2)c2cc(Cl)ccc21 [Diazepam],IC50,[1],14200 ± 5720 nM
same,"potency in displacing [3H]PK11195, fold lower than PK11195",[1],1580 times
same,IC50,[4],14100 ± 15200 nM
same,effect on survival of H1299 cells exposed to CS (in words),[2]; 10^-7 M,significantly increased
same,increase of cell survival,"[2]; 10^-7 M, medium + 30% saliva, CS 120 minutes",16%
same,effect on survival of H1299 cells exposed to CS (in words),[2]; 10^-8 M,significantly increased
same,increase of cell survival,[2]; [10],17.4%
same,Ki,[3],4500 nM
same,binding affinity lower than that of PK11195,[3]; human saliva,three orders of magnitude
CCCCCCN(CCCCCC)C(=O)Cc1c(-c2ccc(F)cc2)[nH]c2ccccc12 [FGIN-1-27],IC50,[1]; [11],152 ± 19 nM
same,"potency in displacing [3H]PK11195, fold lower than PK11195",[1],17 times
same,IC50,[4]; [12],164 nM
same,binding affinity lower than that of PK11195,[3]; human saliva,two orders of magnitude
same,Ki,[3]; [13],150 nM
"CN1C(=O)CN=C(c2ccc(Cl)cc2)c2cc(Cl)ccc21 [Ro5-4864, 4-chlorodiazepam]",IC50,[1]; [11],666 ± 36 nM
same,"potency in displacing [3H]PK11195, fold lower than PK11195",[1],74 times
same,IC50,[4]; [12],2070 ± 1550 nM
same,binding affinity lower than that of PK11195,[3]; human saliva,two orders of magnitude
same,Ki,[3]; [13],500 nM
CCC(C)N(C)C(=O)c1cc2ccccc2c(-c2ccccc2Cl)n1 (stereo not shown) [[^3H]PK11195],Bmax (maximal binding capacity),[5],3133±643 fmoles/mg protein
same,non-specific binding as part of total binding,[5],a third
same,maximum amount of specifically bound ligand (Bmax),[6],3274±787 pmol/mg of protein
same,Bmax,[7],6956±5492 fmoles/mg protein
same,non-specific binding as part of total binding,[7],25±3.2%
same,mean TSPO binding,"[8]; control group (non-smokers), n=16","1,480±1,157"
same,mean TSPO binding,"[8]; smokers group, n=9",694±264
same,mean TSPO binding lower in smokers than control group,[8]; smokers vs control group,53%
same,Bmax (maximal binding capacity),[9],"6,471±1,584 fmol/mg protein"
